Laboratory results: PubChem BioAssay AID2060490 (Molecular Pharmacology Branch, DTP, NCI, 2025)

Tested on: 885512-296-R-J2-PDC complex spheroid viability
Test: Anticancer human tumor 885512-296-R-J2-PDC patient-derived breast carcinoma cell line growth inhibition [GQUAD]
Conditions: for IC50: curve of first compound; for viability, T/C: stronger effect = lower value
Outline: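 Viability of tumor cells grown as complex spheroids with endothelial and stromal cells, exposed to drug combinations. Top concentration at or near clinical Cmax (else 10 microM), diluted in half-log increments.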

[1] = second compound 0.0316 µM, first compound 0.0316 µM
[2] = second compound 0.0316 µM, first compound 0.1 µM
[3] = second compound 0.0316 µM, first compound 0.316 µM
[4] = second compound 0.0316 µM, first compound 1 µM
[5] = second compound 0.0316 µM, first compound 3.16 µM
[6] = second compound 0.0316 µM, first compound 10 µM
[7] = second compound 0.1 µM, first compound 0.0316 µM
[8] = second compound 0.1 µM, first compound 0.1 µM
[9] = second compound 0.1 µM, first compound 0.316 µM
[10] = second compound 0.1 µM, first compound 1 µM
[11] = second compound 0.1 µM, first compound 3.16 µM
[12] = second compound 0.1 µM, first compound 10 µM
[13] = second compound 0.316 µM, first compound 0.0316 µM
[14] = second compound 0.316 µM, first compound 0.1 µM
[15] = second compound 0.316 µM, first compound 0.316 µM
[16] = second compound 0.316 µM, first compound 1 µM
[17] = second compound 0.316 µM, first compound 3.16 µM
[18] = second compound 0.316 µM, first compound 10 µM
[19] = second compound 1 µM, first compound 0.0316 µM
[20] = second compound 1 µM, first compound 0.1 µM
[21] = second compound 1 µM, first compound 0.316 µM
[22] = second compound 1 µM, first compound 1 µM
[23] = second compound 1 µM, first compound 3.16 µM
[24] = second compound 1 µM, first compound 10 µM
[25] = second compound 3.16 µM, first compound 0.0316 µM
[26] = second compound 3.16 µM, first compound 0.1 µM
[27] = second compound 3.16 µM, first compound 0.316 µM
[28] = second compound 3.16 µM, first compound 1 µM
[29] = second compound 3.16 µM, first compound 3.16 µM
[30] = second compound 3.16 µM, first compound 10 µM
[31] = second compound 10 µM, first compound 0.0316 µM
[32] = second compound 10 µM, first compound 0.1 µM
[33] = second compound 10 µM, first compound 0.316 µM
[34] = second compound 10 µM, first compound 1 µM
[35] = second compound 10 µM, first compound 3.16 µM
[36] = second compound 10 µM, first compound 10 µM
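Further: spheroids exposed to the compounds for one week.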
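Wherever viability, T/C is given: percent of tumor spheroid viability relative to DMSO vehicle control wells.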

`CC1COCCN1c1cc(-c2ccnn2C)c2ccnc(-c3ccn[nH]3)c2n1` (stereo not drawn) + Cc1[nH]c2ccc(F)cc2c1-c1nc2c3cccnc3c3ncccc3c2[nH]1 was tested, and the IC50 (second compound 0.0316 µM) was < 31.6 nM, the IC50 (second compound 0.1 µM) was 36 nM and the IC50 (second compound 0.316 µM) was < 31.6 nM. The IC50 (second compound 1 µM) was < 31.6 nM, the IC50 (second compound 3.16 µM) was < 31.6 nM and the IC50 (second compound 10 µM) was < 31.6 nM. It also gave a viability, T/C [1] of 44.6%, a viability, T/C [2] of 7.14% and a viability, T/C [3] of 3.23%. The viability, T/C [4] was 2.97%, the viability, T/C [5] was 4.21% and the viability, T/C [6] was 7.57%. It also gave a viability, T/C [7] of 55.6%, a viability, T/C [8] of 5.92% and a viability, T/C [9] of 3.53%. It also gave a viability, T/C [10] of 3.59%, a viability, T/C [11] of 5.52% and a viability, T/C [12] of 6.77%. The viability, T/C [13] was 37.9%, the viability, T/C [14] was 3.68% and the viability, T/C [15] was 2.99%. The viability, T/C [16] was 2.87%, the viability, T/C [17] was 5.08% and the viability, T/C [18] was 7.25%. For the same compound, the viability, T/C [19] was 5.35%, the viability, T/C [20] was 3.41% and the viability, T/C [21] was 2.46%. It also gave a viability, T/C [22] of 2.67%, a viability, T/C [23] of 5.38% and a viability, T/C [24] of 5.76%. The viability, T/C [25] was 1.59%, the viability, T/C [26] was 1.58% and the viability, T/C [27] was 1.11%. The viability, T/C [28] was 1.8%, the viability, T/C [29] was 3.23% and the viability, T/C [30] was 3.81%. It also gave a viability, T/C [31] of 1.17%, a viability, T/C [32] of 1.15% and a viability, T/C [33] of 1.51%. It also gave a viability, T/C [34] of 2.19%, a viability, T/C [35] of 2.68% and a viability, T/C [36] of 4.02%.

With `CC1COCCN1c1cc(C2(O)CC3CCC(C2)O3)c2cnn(-c3ccn[nH]3)c2n1` (stereo not drawn) + Cc1[nH]c2ccc(F)cc2c1-c1nc2c3cccnc3c3ncccc3c2[nH]1 the IC50 (second compound 0.0316 µM) was < 31.6 nM, the IC50 (second compound 0.1 µM) was < 31.6 nM and the IC50 (second compound 0.316 µM) was < 31.6 nM. The IC50 (second compound 1 µM) was < 31.6 nM, the IC50 (second compound 3.16 µM) was < 31.6 nM and the IC50 (second compound 10 µM) was < 31.6 nM. It also gave a viability, T/C [1] of 34.7%, a viability, T/C [2] of 5.25% and a viability, T/C [3] of 3.32%. It also gave a viability, T/C [4] of 4.26%, a viability, T/C [5] of 6.56% and a viability, T/C [6] of 9.72%. It also gave a viability, T/C [7] of 29.1%, a viability, T/C [8] of 4.51% and a viability, T/C [9] of 2.65%. For the same compound, the viability, T/C [10] was 4.14%, the viability, T/C [11] was 6.29% and the viability, T/C [12] was 8.64%. It also gave a viability, T/C [13] of 14.5%, a viability, T/C [14] of 3.01% and a viability, T/C [15] of 3.13%. For the same compound, the viability, T/C [16] was 3.89%, the viability, T/C [17] was 7.17% and the viability, T/C [18] was 8.72%. The viability, T/C [19] was 3.34%, the viability, T/C [20] was 3.2% and the viability, T/C [21] was 2.99%. The viability, T/C [22] was 3.85%, the viability, T/C [23] was 7.13% and the viability, T/C [24] was 4.46%. For the same compound, the viability, T/C [25] was 1.99%, the viability, T/C [26] was 1.52% and the viability, T/C [27] was 2.56%. The viability, T/C [28] was 3.64%, the viability, T/C [29] was 4.56% and the viability, T/C [30] was 3.61%. For the same compound, the viability, T/C [31] was 1.09%, the viability, T/C [32] was 1.19% and the viability, T/C [33] was 1.76%. It also gave a viability, T/C [34] of 2.85%, a viability, T/C [35] of 4.02% and a viability, T/C [36] of 3.55%.

For `COc1ccc([C@@H](O)c2cc(-c3ncnc4cc(N5CCOCC5)ccc34)c(F)cc2Cl)nn1` + Cc1[nH]c2ccc(F)cc2c1-c1nc2c3cccnc3c3ncccc3c2[nH]1, the IC50 (second compound 0.0316 µM) was > 10000 nM, the IC50 (second compound 0.1 µM) was > 10000 nM and the IC50 (second compound 0.316 µM) was > 10000 nM. The IC50 (second compound 1 µM) was 4340 nM, the IC50 (second compound 3.16 µM) was < 31.6 nM and the IC50 (second compound 10 µM) was < 31.6 nM. It also gave a viability, T/C [1] of 114%, a viability, T/C [2] of 92.6% and a viability, T/C [3] of 95.5%. For the same compound, the viability, T/C [4] was 100%, the viability, T/C [5] was 94.2% and the viability, T/C [6] was 58.7%. The viability, T/C [7] was 121%, the viability, T/C [8] was 98% and the viability, T/C [9] was 104%. The viability, T/C [10] was 94%, the viability, T/C [11] was 83.7% and the viability, T/C [12] was 51.7%. The viability, T/C [13] was 103%, the viability, T/C [14] was 96.7% and the viability, T/C [15] was 85.9%. For the same compound, the viability, T/C [16] was 94.4%, the viability, T/C [17] was 73.6% and the viability, T/C [18] was 57.5%. For the same compound, the viability, T/C [19] was 73.7%, the viability, T/C [20] was 85.9% and the viability, T/C [21] was 67.6%. For the same compound, the viability, T/C [22] was 68.7%, the viability, T/C [23] was 59.2% and the viability, T/C [24] was 30%. The viability, T/C [25] was 11.3%, the viability, T/C [26] was 6.47% and the viability, T/C [27] was 12.8%. It also gave a viability, T/C [28] of 5.75%, a viability, T/C [29] of 10.1% and a viability, T/C [30] of 3.06%. The viability, T/C [31] was 1.38%, the viability, T/C [32] was 2.32% and the viability, T/C [33] was 1.63%. The viability, T/C [34] was 1.42%, the viability, T/C [35] was 1.48% and the viability, T/C [36] was 1.5%.

`O=C(c1cc(Cc2n[nH]c(=O)c3ccccc23)ccc1F)N1CCN(C(=O)C2CC2)CC1` + Cc1[nH]c2ccc(F)cc2c1-c1nc2c3cccnc3c3ncccc3c2[nH]1 was tested, and the IC50 (second compound 0.0316 µM) was 8270 nM, the IC50 (second compound 0.1 µM) was 9460 nM and the IC50 (second compound 0.316 µM) was 8460 nM. The IC50 (second compound 1 µM) was 5090 nM, the IC50 (second compound 3.16 µM) was < 31.6 nM and the IC50 (second compound 10 µM) was < 31.6 nM. It also gave a viability, T/C [1] of 105%, a viability, T/C [2] of 96.3% and a viability, T/C [3] of 124%. The viability, T/C [4] was 139%, the viability, T/C [5] was 134% and the viability, T/C [6] was 36%. The viability, T/C [7] was 98%, the viability, T/C [8] was 103% and the viability, T/C [9] was 119%. The viability, T/C [10] was 137%, the viability, T/C [11] was 146% and the viability, T/C [12] was 46.4%. The viability, T/C [13] was 94.3%, the viability, T/C [14] was 99.2% and the viability, T/C [15] was 112%. The viability, T/C [16] was 150%, the viability, T/C [17] was 131% and the viability, T/C [18] was 38.7%. For the same compound, the viability, T/C [19] was 75.2%, the viability, T/C [20] was 74.4% and the viability, T/C [21] was 82.4%. The viability, T/C [22] was 101%, the viability, T/C [23] was 70.5% and the viability, T/C [24] was 21%. It also gave a viability, T/C [25] of 13.8%, a viability, T/C [26] of 13.9% and a viability, T/C [27] of 16.7%. For the same compound, the viability, T/C [28] was 14.9%, the viability, T/C [29] was 6.15% and the viability, T/C [30] was 2.65%. It also gave a viability, T/C [31] of 2.34%, a viability, T/C [32] of 2.08% and a viability, T/C [33] of 3.14%. For the same compound, the viability, T/C [34] was 1.59%, the viability, T/C [35] was 1.27% and the viability, T/C [36] was 1.27%.
